Laboratory results as given in EP0977755B1, “HETEROCYCLIC COMPOUNDS AND THEIR PREPARATION AND USE” (NOVO NORDISK A/S, priority 1997, dated 1998).
Counter-ions that a name gives are not always drawn. Like-named read-outs stand apart in the source and are kept apart here.

Target: T1, m1 muscarinic receptor (Rattus norvegicus, UniProt P08482)
T1 construct: expressed in transfected cells; host or cells: A9 L cells (mouse fibroblast line)
T1 sequence (P08482 1-460): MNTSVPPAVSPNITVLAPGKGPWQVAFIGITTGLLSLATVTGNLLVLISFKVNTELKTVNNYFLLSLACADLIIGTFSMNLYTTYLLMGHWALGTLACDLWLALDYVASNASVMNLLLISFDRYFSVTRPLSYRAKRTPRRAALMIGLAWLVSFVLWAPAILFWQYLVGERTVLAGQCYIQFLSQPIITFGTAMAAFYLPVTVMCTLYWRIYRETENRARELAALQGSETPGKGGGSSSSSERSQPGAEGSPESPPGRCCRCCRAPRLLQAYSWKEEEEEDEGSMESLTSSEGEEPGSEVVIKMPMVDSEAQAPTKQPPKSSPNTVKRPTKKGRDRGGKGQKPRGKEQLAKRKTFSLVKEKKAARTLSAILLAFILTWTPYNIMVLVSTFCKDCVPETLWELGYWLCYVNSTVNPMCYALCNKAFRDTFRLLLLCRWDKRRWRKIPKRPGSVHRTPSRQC
Test: IP hydrolysis in A9 L cells cloned with the genetic m1 muscarinic receptor
Type: cell-based, human and rat
Settings: for EC50: IP hydrolysis, seven point curves, three separate experiments; for % PI (efficacy) / Emax: percentage of total [3H]IP accumulated in the presence of 100 µM carbachol stimulation, 37°C for 45 min; for Emax: A9L-m1, 0.75 h, read-out: % PI (efficacy)
Experimental: IP hydrolysis in A9 L cells cloned with the genetic m, muscarinic receptor: A9 L cells transfected with human and rat m, muscarinic receptors (Dörje et al., 1991; Jones et al., 1988), were cultured to confluence in 75-ml flasks containing Dulbecco's modified essential media. Cells were prelabeled with 1 µCi/ml of myo(2-[^3H]inositol (Amersham Inc., 16.3 Ci/mmol) for 48 hr before assaying. On the day of assay, cells were detached using a 30-sec exposure to 0.25% trypsin in 1 mM EDTA. The cells were collected by centrifugation (300 x g for 5 min) and resuspended in oxygenated HEPES buffer containing 10 mM LiCl (NaCl 142 mM, KCl 5.6 mM, CaCl2 2.2 mM, MgCl2 1 mM, NaHCO3 3.6 mM, D-glucose 5.6 mM and Na^+ HEPES 30 mM, pH 7.4). Cells were incubated at 37°C for 45 min in the presence of varying concentrations of test compounds. Total IP hydrolysis was determined using the method of Schoepp and Johnson (1988). […] Half-maximal (EC50) values were determined from the mean (±S.D.) of seven point curves determined from three separate experiments.

Row | Structure (SMILES) | EC50 (read-out: EC50) [nM] | % PI (efficacy) [%] | % PI (efficacy) (45 min) [%] | Emax [%] | EC50 (EC50, nM) [nM]
1 | C(#Cc1cccnc1)COc1nsnc1[C@@H]1CN2CCC[C@H]1C2 [Compound 31, Endo (5R,6S)-6-(3-[3-(3-Pyridyl)-2-propyn-1-yloxy]-1,2,5-thiadiazol-4-yl)-1-azabicyclo[3.2.1]octane, (+)-tartrate] | – | – | – | – | 26
2 | C(#Cc1ccccc1)COc1nsnc1[C@H]1CN2CC[C@@H]1C2 (single isomer, unassigned) [Compound 4, Endo (α)-3-(3-(3-Phenyl-2-propyn-1-yloxy)-1,2,5-thiadiazol-4-yl)-1-azabicyclo[2.2.1]heptane, (+)-tartrate] | 159 | – | 77 | – | –
3 | C(#Cc1ccsc1)CSc1nsnc1[C@@H]1CN2CCC[C@H]1C2 [Compound 24, Endo (5R,6S)-6-(3-(3-(3-Thienyl)-2-propyn-1-ylthio)-1,2,5-thiadiazol-4-yl)-1-azabicyclo[3.2.1]octane, (+)-tartrate] | 300 | – | – | 105 | –
4 | Fc1cccc(C#CCSc2nsnc2[C@@H]2CN3CCC[C@H]2C3)c1 [Compound 21, Endo (5R,6S)-6-(3-(3-(3-Fluorophenyl)-2-propyn-1-ylthio)-1,2,5-thiadiazol-4-yl)-1-azabicyclo[3.2.1]octane, (+)-tartrate] | 105 | – | – | 67 | –
5 | Fc1ccc(C#CCOc2nsnc2[C@@H]2CN3CCC[C@H]2C3)cc1 [Compound 27, Endo (5R,6S)-6-(3-(3-(4-Fluorophenyl)-2-propyn-1-yloxy)-1,2,5-thiadiazol-4-yl)-1-azabicyclo[3.2.1]octane, (+)-tartrate] | 187 | – | – | 79 | –
6 | C(#Cc1ccsc1)COc1nsnc1[C@H]1CN2CC[C@@H]1C2 (single isomer, unassigned) [Compound 7, Endo (α)-3-(3-[3-(3-Thienyl)-2-propyn-1-yloxy]-1,2,5-thiadiazol-4-yl)-1-azabicyclo[2.2 1]heptane, (+)-tartrate] | 380 | – | – | 108 | –
7 | C(#Cc1cccs1)CSc1nsnc1[C@@H]1CN2CCC[C@H]1C2 [Compound 25, Endo (5R,6S)-6-(3-(3-(2-Thienyl)-2-propyn-1-ylthio)-1,2,5-thiadiazol-4-yl)-1-azabicyclo[3.2.1]octane, (+)-tartrate] | 210 | – | – | 69 | –
8 | CC(C#Cc1cccs1)Oc1nsnc1[C@H]1CN2CCC[C@H]1C2 (stereo partly drawn) [Compound 47, Exo (5R,6R)-6-(3-(3-(2-Thienyl)-1-methyl-2-propyn-1-yloxy)-1,2,5-thiadiazol-4-yl)-1-azabicyclo[3.2.1]octane, (+)-tartrate] | 102 | – | – | 102 | –
9 | Fc1ccc(C#CCOc2nsnc2C2CN3CCC2CC3)cc1 (racemic) [Compound 54, (+-) 3-(3-(3-(4-Fluorophenyl)-2-propyn-1-yloxy)-1,2,5-thiadiazol-4-yl)-1-azabicyclo[2.2.2]octane, oxalate] | 224 | – | – | – | –
10 | C(#Cc1ccccc1)COc1nsnc1[C@@H]1CN2CCC[C@H]1C2 [Compound 26, Endo (5R,6S)-6-(3-(3-Phenyl-2-propyn-1-yloxy)-1,2,5-thiadiazol-4-yl)-1-azabicyclo[3 2 1]octane, (+)-tartrate] | 280 | – | – | 93 | –
11 | C(#Cc1cccs1)COc1nsnc1[C@H]1CN2CC[C@@H]1C2 (single isomer, unassigned) [Compound 8, Endo (α)-3-(3-(3-(2-Thienyl)-2-propyn-1-yloxy)-1,2,5-thiadiazol-4-yl)-1-azabicyclo[2 2 1]heptane. (+)-tartrate] | 670 | – | – | 91 | –

More lines, main results first:

Row | EC50 (read-out: EC50) [nM] | % PI (efficacy) [%] | % PI (efficacy) (45 min) [%] | Emax [%] | Structure (SMILES) | EC50 (EC50, nM) [nM]
12 | 20 | 82 | – | – | C(#Cc1ccsc1)COc1nsnc1[C@@H]1CN2CCC[C@H]1C2.O=C(O)C(O)C(O)C(=O)O [Compound 30, Endo (5R,6S)-6-(3-[3-(3-Thienyl)-2-propyn-1-yloxy]-1,2,5-thiadiazol-4-yl)-1-azabicyclo[3.2.1]octane, (+)-tartrate] | –
13 | 42 | – | 73 | – | COc1cccc(C#CCOc2nsnc2[C@H]2CN3CC[C@@H]2C3)c1 (single isomer, unassigned) [Compound 5, Endo (α)-3-(3-(3-(3-Methoxyphenyl)-2-propyn-1-yloxy)-1,2,5-thiadiazol-4-yl)-1-azabicyclo[2.2.1]heptane, (+)-tartrate] | –
14 | 0.2 | – | – | 105 | C(#Cc1ccccc1)CSc1nsnc1[C@H]1C[N@@]2CCC[C@H]1C2 [Compound 39, Exo (5R,6R)-6-(3-(3-Phenyl-2-propyn-1-ylthio)-1,2,5-thiadiazol-4-yl)-1-azabicyclo[3.2.1]octane. (+)-tartrate] | –
15 | 2 | – | – | 100 | COc1cccc(C#CCOc2nsnc2[C@H]2CN3CCC[C@H]2C3)c1 [Compound 41, Exo (5R,6R)-6-(3-(3-(3-Methoxyphenyl)-2-propyn-1-yfoxy)-1,2,5-thiadiazol-4-yl)-1-azabicyclo[3.2.1]octane, oxalate] | –
16 | 9 | – | – | 85 | COc1cccc(C#CC(C)Oc2nsnc2[C@H]2CN3CCC[C@H]2C3)c1 (stereo partly drawn) [Compound 43, Exo (5R,6R)-6-(3-(3-(3-Methoxyphenyl)-1-methyl-2-propyn-1-yloxy)-1,2,5-thiadiazol-4-yl)-1-azabicyclo[3.2.1]octane, (+)-tartrate] | –
17 | 98 | – | – | 64 | C(#Cc1ccccc1)COc1nsnc1[C@H]1CN2CC[C@@H]1C2 (single isomer, unassigned) [Compound 11, Endo (β)-3-(3-(3-Phenyl-2-propyn-1-yloxy)-1,2,5-thiadiazol-4-yl)-1-azabicyclo[2.2.1]heptane, (+)-tartrate] | –
18 | 38 | – | 68 | – | Fc1ccc(C#CCOc2nsnc2[C@H]2CN3CC[C@@H]2C3)cc1 (single isomer, unassigned) [Compound 9, Endo (β)-3-(3-(3-(4-Fluorophenyl)-2-propyn-1-yloxy)-1.2.5-thiadiazol-4-yl)-1-azabicyclo[2 2.1]heptane, (-)-tartrate] | –
19 | 14 | – | – | 56 | CC(C)C(C#Cc1ccsc1)Oc1nsnc1C1CN2CCC1C2 (mixture of isomers) [Compound 16, Exo (+-) 3-(3-(1-(3-Thienyl)-4-methyl-1-pentyn-3-yloxy)-1 ,2,5-thiadiazol-4-yl)-1-azabicyclo[2.2.1]heptane, (+)-tartrate] | –
20 | 7 | – | – | 96 | CC(C#Cc1ccsc1)Oc1nsnc1[C@H]1CN2CCC[C@H]1C2 (stereo partly drawn) [Compound 48, Exo (5R,6R)-6-(3-(3-(3-Thienyl)-1-methyl-2-propyn-1-yloxy)-1,2,5-thiadiazol-4-yl)-1-azabicyclo[3.2.1]octane, (+)-tartrate] | –
21 | 1 | – | – | 98 | C(#Cc1ccccc1)CSc1nsnc1[C@@H]1CN2CCC[C@H]1C2 [Compound 20, Endo (5R,6S)-6-(3-(3-Phenyl-2-propyn-1-ylthio)-1,2,5-thiadiazol-4-yl)-1-azabicyclo[3,2 1]octane, (+)-tartrate] | –
22 | 0.5 | – | – | 102 | C(#Cc1ccccc1)COc1nsnc1[C@H]1C[N@@]2CCC[C@H]1C2 [Compound 40, Exo (5R,6R)-6-(3-(3-Phenyl-2-propyn-1-yloxy)-1,2,5-thiadiazol-4-yl)-1-azabicyclo[3.2.1]octane, oxalate] | –
23 | 75 | – | – | 57 | COc1cccc(C#CCOc2nsnc2[C@H]2CN3CC[C@@H]2C3)c1 (single isomer, unassigned) [Compound 10, Endo (β)-3-(3-(3-(3-Methoxyphenyl)-2-propyn-1-yloxy)-1,2,5-thiadiazol-4-yl)-1-azabicyclo[2.2.1]heptane, (-)-tartrate] | –
